US5866681A, “Thrombin receptor antagonists” (priority 1995, dated 1999)
pIC50: −log10 of the molar value. *1 amine or outer side, *2 acyl side, *3 side chain or, on linkers, in order; H or OH if unused. Where a SMILES comes first, the peptide text is derived from it. [ ]: non-standard residue; d: D form. The star is where a group is joined. X18 = CN(CC(c1ccccc1)c1ccccc1)[C@@H](Cc1ccccc1)C(=O)*; X1 = CN(Cc1cccc(Oc2ccccc2)c1)[C@@H](Cc1ccccc1)C(=O)*; X10 = O=C([C@H](Cc1ccccc1)N(CCCc1ccccc1)[*:1])[*:2]; X16 = CCCCCN([C@@H](Cc1ccccc1)C(=O)[*:2])[*:1]; X12 = CCCCCN([C@H](Cc1ccccc1)C(=O)[*:2])[*:1]; Quinoxaline2carbonyl = O=C(c1cnc2ccccc2n1)*; X13 = CN(CC1CCCCC1)[C@@H](Cc1ccccc1)C(=O)*; X11 = O=C([C@@H]1Cc2ccccc2CN1CC1CCCCC1)*; Butanoyl(2-OPh) = CCC(Oc1ccccc1)C(=O)*; Quinaldoyl = O=C(c1ccc2ccccc2n1)*; Cha = N[C@@H](CC1CCCCC1)C(=O)O; Orn = NCCC[C@H](N)C(=O)O

Target: T1, thrombin receptor (Homo sapiens, UniProt P25116)
T1 construct: washed human platelets are prepared from blood drawn from healthy volunteers; endogenous in cells; host or cells: washed human platelets from healthy volunteers
T1 sequence (P25116 22-425): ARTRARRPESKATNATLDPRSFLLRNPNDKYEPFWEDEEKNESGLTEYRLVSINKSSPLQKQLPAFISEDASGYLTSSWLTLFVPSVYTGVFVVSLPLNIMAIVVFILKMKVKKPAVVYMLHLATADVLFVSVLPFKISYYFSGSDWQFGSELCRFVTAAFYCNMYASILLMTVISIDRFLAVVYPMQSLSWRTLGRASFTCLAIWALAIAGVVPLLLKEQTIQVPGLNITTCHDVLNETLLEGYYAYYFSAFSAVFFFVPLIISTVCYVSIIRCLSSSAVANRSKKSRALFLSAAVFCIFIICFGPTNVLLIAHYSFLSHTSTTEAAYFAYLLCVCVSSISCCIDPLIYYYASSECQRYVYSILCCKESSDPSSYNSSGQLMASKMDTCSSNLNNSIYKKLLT
Experiment: Platelet aggregation assay for thrombin receptor antagonist activity (washed human platelets stimulated with α-thrombin)
Assay type: cell-based
Conditions: not given
Protocol: The compounds of the present invention may be tested for thrombin receptor antagonist activity by using a platelet aggregation assay. In this assay, washed human platelets are prepared from blood drawn from healthy volunteers who have not ingested any medications for two weeks prior to donation. Blood is drawn into 12.5% (vol/vol) ACD (85 mM sodium citrate, 111 mM dextrose, 71 mM citric acid) containing 0.1% (vol/vol) PGI2 (0.05 mg/mL PGI2, 100 mM Tris, pH 12). Platelet-rich plasma was obtained by centrifugation at 160×g for 20 minutes. The platelets were pelleted by centrifugation at 760×g for 10 minutes and resuspended in CGS (13 mM trisodium citrate, 120 mM sodium chloride, 30 mM dextrose, pH 7.0) containing 0.1% (vol/vol) PGI2, repelleted and resuspended in Tyrodes buffer (10 mM Hepes, 12 mM sodium bicarbonate, 138 mM sodium chloride, 5.5 mM glucose, 2.9 mM potassium chloride, 1.0 mM calcium chloride, pH 7.4) and stored at 37° C. Approximately 0.4-10 nM α-thrombin is used to stimulate platelet aggregation in control reactions which are monitored by aggregometry using an aggregometer. Candidate antagonists are added to the platelet mixture followed by the addition of thrombin in order to assess their ability to prevent thrombin-mediated aggregation.
Platelet aggregation can also be measured with washed platelets in 96-well microtiter plates as described in Fratantoni, J. C. et al., Am. J. Clin. Pathol. 94:613-617 (1990). The ability of the antagonists to block the thrombin receptor was assessed in this assay using various concentrations of antagonists. The concentration at which 50% inhibition of platelet aggregation is achieved is defined as IC50.

Q: How did the pIC50 turn out when `N=C(N)NCCC[C@H](NC(=O)[C@H](CC1CCCCC1)NC(=O)[C@H](CC1CCCCC1)NC(=O)[C@H](Cc1ccccc1)NCCCc1ccccc1)C(=O)N[C@@H](CCCCN)C(=O)N1CCC[C@H]1C(=O)N[C@@H](CC(N)=O)C(=O)N[C@@H](CC(=O)O)C(=O)N[C@@H](CCCCN)C(N)=O` [Compound 7] (H-[X10][Cha][Cha]RKPNDK-NH2) was run?
A: The pIC50 was 5.30.

Q: How did the pIC50 turn out when `CCCCCN[C@@H](Cc1ccccc1)C(=O)N[C@@H](CC1CCCCC1)C(=O)N[C@@H](CC1CCCCC1)C(=O)N[C@@H](CCCNC(=N)N)C(=O)N[C@@H](CCCCN)C(N)=O` [Compound 14] (H-[X16][Cha][Cha]RK-NH2) was run?
A: Its pIC50 is 5.30.

Q: How did the pIC50 turn out when `CN(CC(c1ccccc1)c1ccccc1)[C@@H](Cc1ccccc1)C(=O)N[C@@H](CC1CCCCC1)C(=O)N[C@@H](CC1CCCCC1)C(=O)N[C@@H](CCCNC(=N)N)C(=O)N[C@@H](CCCCN)C(N)=O` [Compound 16] (X18-[Cha][Cha]RK-NH2) was run?
A: The pIC50 was 5.00.

Q: With `CCCCCN[C@H](Cc1ccccc1)C(=O)N[C@@H](CC1CCCCC1)C(=O)N[C@@H](CC1CCCCC1)C(=O)N[C@@H](CCCNC(=N)N)C(=O)N[C@@H](CCCCN)C(N)=O` [Compound 22] (H-[X12][Cha][Cha]RK-NH2) as the compound, how does the pIC50 read?
A: The pIC50 was 4.60.

Same assay, conditions: washed human platelets, thrombin-mediated aggregation; read-out: IC50 (concentration at which 50% inhibition of platelet aggregation is achieved)

Q: How did the pIC50 turn out when `CCC(Oc1ccccc1)C(=O)N[C@@H](CC1CCCCC1)C(=O)N[C@@H](CC1CCCCC1)C(=O)NCc1ccncc1` (stereo partly drawn) [Compound 58] was run?
A: Its pIC50 is under 4.00.

Q: With `CC/C(=C\c1ccccc1)CN[C@@H](CC1CCCCC1)C(=O)N[C@@H](CC1CCCCC1)C(=O)N[C@@H](CCCNC(=N)N)C(=O)N[C@@H](CCCCN)C(N)=O` [Compound 35] as the compound, how does the pIC50 read?
A: Its pIC50 is 4.70.

Q: How did the pIC50 turn out when `CCC(Oc1ccccc1)C(=O)N[C@@H](CC1CCCCC1)C(=O)N[C@@H](CC1CCCCC1)C(=O)N[C@@H](CCCNC(=N)N)C(=O)N[C@@H](CCCN)C(N)=O` (stereo partly drawn) [Compound 48] ({Butanoyl(2-OPh)}-[Cha][Cha]R[Orn]-NH2) was run?
A: The pIC50 was 5.00.

Q: How did the pIC50 turn out when `N=C(N)NCCC[C@H](NC(=O)[C@H](CC1CCCCC1)NC(=O)[C@H](CC1CCCCC1)NC(=O)c1cnc2ccccc2n1)C(=O)N[C@@H](CCCCN)C(N)=O` [Compound 37] (Quinoxaline2carbonyl-[Cha][Cha]RK-NH2) was run?
A: Its pIC50 is under 4.00.

Q: With `CN(Cc1cccc(Oc2ccccc2)c1)[C@@H](Cc1ccccc1)C(=O)N[C@@H](CC1CCCCC1)C(=O)N[C@@H](CC1CCCCC1)C(=O)N[C@@H](CCCNC(=N)N)C(=O)N[C@@H](CCCCN)C(N)=O` [Compound 17] (X1-[Cha][Cha]RK-NH2) as the compound, how does the pIC50 read?
A: The pIC50 was 4.82.

Q: `N=C(N)NCCC[C@H](NC(=O)[C@H](CC1CCCCC1)NC(=O)[C@H](CC1CCCCC1)NC(=O)c1ccc2ccccc2n1)C(=O)N[C@@H](CCCCN)C(N)=O` [Compound 28] (Quinaldoyl-[Cha][Cha]RK-NH2) was tested. Which pIC50 did it give?
A: Its pIC50 is 4.52.

Q: `CCC(Oc1ccccc1)C(=O)N[C@@H](CC1CCCCC1)C(=O)N[C@@H](CC1CCCCC1)C(=O)N[C@@H](CCCN)C(=O)N[C@@H](CCCCN)C(N)=O` (stereo partly drawn) [Compound 50] ({Butanoyl(2-OPh)}-[Cha][Cha][Orn]K-NH2) was tested. Which pIC50 did it give?
A: Its pIC50 is 4.00.

Q: With `CCCCCN[C@@H](Cc1ccccc1)C(=O)N[C@H](CC(C)C)C(=O)N[C@@H](CC1CCCCC1)C(=O)N[C@@H](CCCNC(=N)N)C(=O)N[C@@H](CCCCN)C(N)=O` [Compound 45] (H-[X16][dL][Cha]RK-NH2) as the compound, how does the pIC50 read?
A: Its pIC50 is 5.30.

Q: How did the pIC50 turn out when `CN(CC1CCCCC1)[C@@H](Cc1ccccc1)C(=O)N[C@@H](CC1CCCCC1)C(=O)N[C@@H](CC1CCCCC1)C(=O)N[C@@H](CCCNC(=N)N)C(=O)N[C@@H](CCCCN)C(N)=O` [Compound 20] (X13-[Cha][Cha]RK-NH2) was run?
A: The pIC50 was 4.82.

Q: `N=C(N)NCCC[C@H](NC(=O)[C@H](CC1CCCCC1)NC(=O)[C@H](CC1CCCCC1)NC(=O)[C@@H]1Cc2ccccc2CN1CC1CCCCC1)C(=O)N[C@@H](CCCCN)C(N)=O` [Compound 12] (X11-[Cha][Cha]RK-NH2) was tested. Which pIC50 did it give?
A: Its pIC50 is 4.70.

Q: `CCCCCN[C@@H](Cc1ccccc1)C(=O)N[C@@H](CC1CCCCC1)C(=O)N[C@H](CC(C)C)C(=O)N[C@@H](CCCNC(=N)N)C(=O)N[C@@H](CCCCN)C(N)=O` [Compound 44] (H-[X16][Cha][dL]RK-NH2) was tested. Which pIC50 did it give?
A: Its pIC50 is 5.30.
